Results from patent US12479816B2, “20-HETE formation inhibitors” (UNIVERSITY OF PITTSBURGH—OF THE COMMONWEALTH SYSTEM OF …, priority 2019, dated 2025).

Experiments:
[1] = test system: 20-HETE formation (CYP4) in RLM; assay: Inhibition of 20-HETE formation at 250 or 500 nM in RLM microsomal incubations; type: biochemical, rat; conditions: 500 nM compound; RLM 300 μg/ml
Experimental: (§1) To screen the inhibitory effects against 20-HETE formation, compounds were screened in HLM, RLM, RKM and rCYP4F2 microsomal incubations. Compounds dissolved in either 100% methanol or 100% DMSO to yield 10 mM stock solution. Microsomal incubations containing HLM, RLM, RKM (300 μg/ml) or rCYP4F2 (25 pmol/mL), AA (100 μM), NADPH (1 mM) treated with test compounds at various concentrations (500 nM or 250 nM) in a 1 ml total volume in incubation buffer (0.12 M potassium phosphate buffer containing 5 mM magnesium chloride). Reaction was started by adding NADPH to the incubates and was carried out at 37° C. in a shaking water bath for 20 min. Reaction was stopped by placing tubes on ice, followed by adding 125 μl 20-HETE-d6 as internal standard to each sample. Microsomal incubations were extracted with 3 ml ethyl ether twice, dried down under nitrogen gas and reconstituted in 125 μl 80:20 methanol:deionized H2O for analysis. 20-HETE formation was quantified using a validated UPLC-MS/MS assay and normalized by vehicle group. Each compound had three replications (n=3). Vehicle group was used as control to calculate percentage of 20-HETE formation rate. HET0016 (250 nM) was used as positive control. Incubates without NADPH group served as the negative control. An Acquity ultra performance LC autosampler (Waters, Milford, MA) was used to isolate 20-HETE on an UPLC BEH C18, 1.7 μm (2.1×100 mm) reversed-phase column (Waters, Milford, MA) protected by a guard column (2.1×5 mm; Waters, Milford, MA) of the same packing material. Column temperature was maintained at 55° C. Mobile phases consisted of 0.005% acetic acid, 5% acetonitrile in deionized water (A) and 0.005% acetic acid in acetonitrile (B). The flow rate for mobile phases is 0.5 ml/min. The initial mixture of mobile phase was 65:35 of A and B. Mobile phase B increased at 0.4 minutes after injection from 35% to 70% in a linear gradient over 4 minutes, and again increased to 95% over 0.5 minutes where it remained for 0.3 minutes. This was followed by a linear return to initial conditions over 0.1 minutes with a 1.5 minute pre-equilibration period prior to the next sample run. Total run time was 6.4 minutes for each injection. Injection volumes were 7.5 μl. Mass spectrometric analysis was carried out using a TSQ Quantum Ultra (Thermo Fisher Scientific, San Jose, CA) triple quadrupole mass spectrometer using heated electrospray ionization (HESI). Mass spectrometer was operated in negative selective reaction monitoring (SRM) mode with unit resolutions at both Q1 and Q3 set at 0.70 Da full width at half maximum. Scan time was set at 0.01 s and collision gas pressure was 1.3 mTorr. Quantitation of 20-HETE by SRM was performed by monitoring the m/z. Analytical data was acquired and analyzed using Xcaliber 3.0 data system (ThermoFinnigan, San Jose, CA).

[2] = test system: 20-HETE formation (CYP4) in HLM; assay: Inhibition of 20-HETE formation at 250 or 500 nM in HLM microsomal incubations; type: biochemical, human; conditions: 500 nM compound; HLM 300 μg/ml, AA 100 μM, 20 min
Experimental: as §1

rCYP4F2 = target: T1, rCYP4F2 (Homo sapiens, UniProt P78329); assay: Inhibition of 20-HETE formation at 250 or 500 nM in rCYP4F2 incubations; type: biochemical; conditions: 500 nM compound; rCYP4F2 25 pmol/mL; read-out: rCYP4F2 % inh. @ 500 nM
T1 sequence (P78329 5-520): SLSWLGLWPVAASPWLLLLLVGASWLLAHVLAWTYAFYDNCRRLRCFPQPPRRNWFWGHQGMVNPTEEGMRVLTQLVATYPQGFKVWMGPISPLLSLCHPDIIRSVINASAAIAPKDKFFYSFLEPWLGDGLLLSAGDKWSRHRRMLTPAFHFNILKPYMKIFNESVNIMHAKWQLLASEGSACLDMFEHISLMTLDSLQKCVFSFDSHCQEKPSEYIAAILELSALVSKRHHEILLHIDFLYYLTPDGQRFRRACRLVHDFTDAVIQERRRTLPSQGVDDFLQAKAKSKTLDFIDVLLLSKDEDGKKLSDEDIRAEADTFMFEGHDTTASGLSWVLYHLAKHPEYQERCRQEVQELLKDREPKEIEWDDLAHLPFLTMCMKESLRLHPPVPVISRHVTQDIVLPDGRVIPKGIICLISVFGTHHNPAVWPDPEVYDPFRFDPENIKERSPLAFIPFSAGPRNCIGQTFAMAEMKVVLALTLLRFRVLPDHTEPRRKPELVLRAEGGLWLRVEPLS
Experimental: as §1

Structure (SMILES) | RLM % inh. @ 500 nM [1] [%] | HLM % inh. @ 500 nM [2] [%] | inhibition at 0.5 µM (rCYP4F2) [%]
COc1ccccc1C1CCN(c2ccn[nH]2)CC1 [Compound 21, 4-(2-Methoxyphenyl)-1-(1H-pyrazol-5-yl)piperidine] | 0.00 | 8.80 | 2
Cc1n[nH]cc1N1CCC(c2ccccc2)CC1 [Compound 37, 1-(3-Methyl-1H-pyrazol-4-yl)-4-phenylpiperidine] | 0.00 | 0.00 | 31.9
Cc1cc(N2CCC(c3ccccc3)CC2)[nH]n1 [Compound 38, 1-(5-Methyl-1H-pyrazol-5-yl)-4-phenylpiperidine] | 0.00 | 0.00 | 22.3
c1ccc(SC2CCN(c3ccn[nH]3)CC2)cc1 [Compound 39, 4-(Phenylthio)-1-(1H-pyrazol-5-yl)piperidine] | 0.00 | 6.00 | 22.7
COC(=O)c1cccc(C2CCN(c3ccn[nH]3)CC2)c1 [Compound 56, Methyl 3-(1-(1H-pyrazol-5-yl)piperidin-4-yl)benzoate] | 0.00 | 0.00 | 11.4
COc1ccc(SC2CCN(c3ccn[nH]3)CC2)cc1 [Compound 68, 4-((4-Methoxyphenyl)thio)-1-(1H-pyrazol-5-yl)piperidine] | 0 | 48 | 70.9
O=C(c1ccc(C2CCN(c3cn[nH]c3)CC2)cc1)N1CCCC1 [Compound 77, (4-(1-(1H-Pyrazol-4-yl)piperidin-4-yl)phenyl)(pyrrolidin-1-yl)methanone] | 13.80 | 84.4 | 55
O=C(c1ccc(C2CCN(c3ccn[nH]3)CC2)cc1)N1CCCC1 [Compound 78, (4-(1-(1H-Pyrazol-5-yl)piperidin-4-yl)phenyl)(pyrrolidin-1-yl)methanone] | 0.00 | 83.6 | 31
O=C(c1ccc(C2CCN(c3ccn[nH]3)CC2)c(F)c1)N1CCCC1 [Compound 82] | 2.00 | 75 | 36
O=S(=O)(c1ccc(C2CCN(c3cn[nH]c3)CC2)cc1)N1CCCC1 [Compound 85, 1-(1H-Pyrazol-4-yl)-4-(4-(pyrrolidin-1-ylsulfonyl)phenyl)piperidine] | 0.00 | 81.3 | 64
FC(F)(F)c1ccnc(C2CCN(c3ccn[nH]3)CC2)c1 [Compound 87, 2-(1-(1H-Pyrazol-5-yl)piperidin-4-yl)-4-(trifluoromethyl)pyridine] | 2.70 | 15.6 | 7.4
O=S(=O)(c1ccc(C2CCN(c3ccn[nH]3)CC2)cc1)N1CCCC1 [Compound 96, 1-(1H-Pyrazol-5-yl)-4-(4-(pyrrolidin-1-ylsulfonyl)phenyl)piperidine] | 0.00 | 63.10 | 16.4

Continued, values first:

RLM % inh. @ 500 nM [1] [%] | HLM % inh. @ 500 nM [2] [%] | inhibition at 0.5 µM (rCYP4F2) [%] | Structure (SMILES)
0.00 | 0.00 | 0 | COc1ccccc1C1CCN(c2cn[nH]c2)CC1 [Compound 22, 4-(2-Methoxyphenyl)-1-(1H-pyrazol-4-yl)piperidine]
43.10 | 0.00 | 41.2 | COC(=O)c1cccc(C2CCN(c3cn[nH]c3)CC2)c1 [Compound 57, Methyl 3-(1-(1H-pyrazol-4-yl)piperidin-4-yl)benzoate]
0.00 | 84 | 71 | COc1cccc(SC2CCN(c3cn[nH]c3)CC2)c1 [Compound 76, 4-((3-Methoxyphenyl)thio)-1-(1H-pyrazol-4-yl)piperidine]
4.00 | 60 | 62 | COc1ccc(CC2CCN(c3ccn[nH]3)CC2)cc1 [Compound 79, 4-(4-Methoxybenzyl)-1-(1H-pyrazol-5-yl)piperidine]
18.10 | 37.9 | 49.4 | FC(F)(F)c1ccnc(C2CCN(c3cn[nH]c3)CC2)c1 [Compound 86, 2-(1-(1H-pyrazol-4-yl)piperidin-4-yl)-4-(trifluoromethyl)pyridine]
0.00 | 39.8 | 26.4 | c1cnc(SC2CCN(c3cn[nH]c3)CC2)nc1 [Compound 88, 2-((1-(1H-Pyrazol-4-yl)piperidin-4-yl)thio)pyrimidine]
20.80 | 67 | 70.3 | Clc1cccc(CC2CCN(c3cn[nH]c3)CC2)c1 [Compound 90, 4-(3-chlorobenzyl)-1-(1H-pyrazol-4-yl)piperidine]
0.00 | 40.4 | 39.1 | Clc1cccc(CC2CCN(c3ccn[nH]3)CC2)c1 [Compound 91, 4-(3-Chlorobenzyl)-1-(1H-pyrazol-5-yl)piperidine]
0.00 | 77.3 | 87.1 | Fc1ccccc1SC1CCN(c2cn[nH]c2)CC1 [Compound 92, 4-((2-Fluorophenyl)thio)-1-(1H-pyrazol-4-yl)piperidine]
13.50 | 61.3 | 60.3 | Cc1cccc(CC2CCN(c3cn[nH]c3)CC2)c1 [Compound 94, 4-(3-Methylbenzyl)-1-(1H-pyrazol-4-yl)piperidine]
15.40 | 42.8 | 26.3 | FC(F)(F)c1cncc(C2CCN(c3cn[nH]c3)CC2)c1 [Compound 95, 4 3-(1-(1H-Pyrazol-4-yl)piperidin-4-yl)-5-(trifluoromethyl)pyridine]
0.00 | 35.30 | 22.9 | Cc1cccc(CC2CCN(c3ccn[nH]3)CC2)c1 [Compound 97, 4-(3-Methylbenzyl)-1-(1H-pyrazol-5-yl)piperidine]
5.00 | 37.20 | 25 | COc1cc(CC2CCN(c3cn[nH]c3)CC2)ccn1 [Compound 98, 4-((1-(1H-Pyrazol-4-yl)piperidin-4-yl)methyl)-2-methoxypyridine]
0.00 | 17.70 | 0 | COc1cc(CC2CCN(c3ccn[nH]3)CC2)ccn1 [Compound 99, 4-((1-(1H-Pyrazol-5-yl)piperidin-4-yl)methyl)-2-methoxypyridine]
0.00 | 36.50 | 27.9 | O=S1(=O)CCc2cc(C3CCN(c4cn[nH]c4)CC3)ccc21 [Compound 102, 5-(1-(1H-Pyrazol-4-yl)piperidin-4-yl)-2,3-dihydrobenzo[b]thiophene 1,1-dioxide]
